What was measured:
[1] = remark: listed apart in the source
Protocol: The remainder of the hydrolyzed seed mash (100 g-0.79 g) was partitioned into a total of 400 ml EtOAc, by vigorous stirring and shaking. The mixture was then allowed to settle in a large graduate cylinder, the upper 100 ml was removed and evaporated under vacuum. […] This oil was then vortexed (1 g volume per 100 ml of water), then allowed to re-equilibrate into two phases, filtered, and the aqueous phase used for HPLC determination of sulforaphane content as described above.

partition in biphasic mixture of ethyl acetate and water (pure sulforaphane spiked into ethyl acetate/water): partitions to the organic fraction
partition in biphasic mixture of hexane and water (pure sulforaphane spiked into hexane/water): partitions to the aqueous fraction
solubility in oil ([1]; broccoli seed oil): oil soluble
solubility in hexane ([1]; hexane): not soluble
solubility in water ([1]; water, back-extraction of the oil): reasonable solubility
Compound: C[S+]([O-])CCCCN=C=S (centres unmarked) [sulforaphane, 4-methylsulfinylbutyl isothiocyanate]
